Measured values published in patent US9388180B2, “Inhibitor compounds of phosphodiesterase type 10A” (priority 2012, dated 2016).

Columns and labels:
[1] = Microsomal half-life / microsomal clearance, human liver microsomes; format: in vitro ADME; settings: 0.5 μM test substance, 0.25 mg protein/ml, pH 7.4, 37° C.
Experimental: (§1) The metabolic stability of the compounds of the invention was determined in the following assay. The test substances were incubated in a concentration of 0.5 μM as follows: 0.5 μM test substance are preincubated together with liver microsomes from different species (from rat, human or other species) (0.25 mg of microsomal protein/ml) in 0.05 M potassium phosphate buffer of pH 7.4 in microtiter plates at 37° C. for 5 min. The reaction is started by adding NADPH (1 mg/mL). After 0, 5, 10, 15, 20 and 30 min, 50 μl aliquots are removed, and the reaction is immediately stopped and cooled with the same volume of acetonitrile. The samples are frozen until analyzed. The remaining concentration of undegraded test substance is determined by MSMS. The half-life (T½) is determined from the gradient of the signal of test substance/unit time plot, it being possible to calculate the half-life of the test substance, assuming first order kinetics, from the decrease in the concentration of the compound with time. The microsomal clearance (mCl) is calculated from mCl=ln 2/T½/(content of microsomal protein in mg/ml)×1000 [ml/min/mg] (modified from references: Di, The Society for Bimolecular Screening, 2003, 453-462; Obach, D M D, 1999 vol 27. N 11, 1350-1359).

[2] = Microsomal half-life / microsomal clearance, rat liver microsomes; format: in vitro ADME; settings: 0.5 μM test substance, 0.25 mg protein/ml, pH 7.4, 37° C.
Experimental: as §1

rats [3] = settings: cited from earlier work
rats [4] = settings: cited from earlier work; remark: listed apart in the source
rats [5] = settings: cited from earlier work; remark: listed apart in the source

Human mCl [1]	Rat mCl [2]	SMILES	effect on the cataleptic effect of haloperidol (rats [3]; with D2 receptor antagonist haloperidol)	catalepsy on its own (rats [3]; without haloperidol)	reduction of amphetamine-induced hyperactivity (rats [4])	hyperactivity induced by PCP (rats [5])
++ (++: <100 μl min^−1 mg^−1)	++ (++: <100 μl min^−1 mg^−1)	Cc1nc(-c2cccc(C(N)=O)c2)n2c1c(C)nc1scnc12 [Example 8, 3-(5,6-Dimethyl-3-thia-1,4,7,8a-tetraaza-as-indacen-8-yl)-benzamide]	–	–	–	–
++ (++: <100 μl min^−1 mg^−1)	++ (++: <100 μl min^−1 mg^−1)	Cc1ncccc1-c1nc(C)c2c(C)nc3scnc3n12 [Example 9, 5,6-Dimethyl-8-(2-methyl-pyridin-3-yl)-3-thia-1,4,7,8a-tetraaza-as-indacene]	–	–	–	–
+ (+: 100-220 μl min^−1 mg^−1)	∘ (∘: >220 μl min^−1 mg^−1)	CCCc1nc(C)c2c(C)nc3sc(C)nc3n12 [Example 3, 2,5,6-Trimethyl-8-propyl-3-thia-1,4,7,8a-tetraaza-as-indacene]	–	–	–	–
∘ (∘: >220 μl min^−1 mg^−1)	∘ (∘: >220 μl min^−1 mg^−1)	CCCc1nc(C)c2c(C)nc3sc(OC)nc3n12 [Example 5, 2-Methoxy-5,6-dimethyl-8-propyl-3-thia-1,4,7,8a-tetraaza-as-indacene]	–	–	–	–
++ (++: <100 μl min^−1 mg^−1)	+ (+: 100-220 μl min^−1 mg^−1)	CCCc1nc(C)c2c(C)nc3scnc3n12 [Example 1, 5,6-Dimethyl-8-propyl-3-thia-1,4,7,8a-tetraaza-as-indacene]	–	–	–	–
–	–	COc1ccc(Cc2nccc3cc(OC)c(OC)cc23)cc1OC [Papaverine, papaverine]	potentiated the cataleptic effect	did not cause catalepsy	insignificant	reduced hyperactivity
+ (+: 100-220 μl min^−1 mg^−1)	+ (+: 100-220 μl min^−1 mg^−1)	Cc1ccc(-c2nc(C)c3c(C)nc4scnc4n23)cn1 [Example 11, 5,6-Dimethyl-8-(6-methyl-pyridin-3-yl)-3-thia-1,4,7,8a-tetraaza-as-indacene]	–	–	–	–
